Consider 30 substances from patent publication US7056679B2, “Target specific screening and its use for identifying target binders” (Antyra, Inc., priority 2001, dated 2006).

Experiment [1] deals with T1, DGI-2 (Homo sapiens, UniProt Q15004).
T1 construct: encompassed the entire DGI-2 open reading frame (ORF); His-tag of vector pIVEX2.3-MCS (inferred from the vector and from the reverse primer lacking a stop codon); made in house; host or cells: cell-free in vitro translation (Rapid Translation System RTS, Roche; E. coli lysate)
T1 sequence (Q15004 1-111): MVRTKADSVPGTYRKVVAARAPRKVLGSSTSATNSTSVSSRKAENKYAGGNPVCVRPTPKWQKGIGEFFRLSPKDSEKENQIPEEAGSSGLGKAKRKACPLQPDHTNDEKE
Kind of experiment: ELISA analysis of phage on DGI-2 polypeptide (specific binding). The following applies: for DGI-2 (OD): binding to DGI-2 polypeptide (specific binding), phage ELISA units read at 405 nm; for DGI-2/LDH (OD): ratio of specific binding to non-specific binding. The method, then:
To verify that the selected target binders bound to DGI-2, Elisa assays were performed with recombinant DGI-2. DGI-2 was subcloned and expressed using conventional methods as described below.
Protein yields were satisfactory, but most of protein was found in inclusion bodies. Next, DGI-2 was expressed using an in vitro translation system (Rapid Translation System RTS 5000, Roche Diagnostics GmbH, Mannheim Germany). For this system, the DGI-2 ORF was cloned into the pIVEX2.3-MCS vector (Roche Diagnostics) using restriction sites Nde I and Hind III, which were added to DGI-2 by PCR. […] The primers used for the PCR amplification were as follows: […]
(§1) For analysis of individual target binders, colonies were picked and phage prepared as described above using helper phage, M13KO7. Ninety-six-well microtiter plates were coated with 500 ng/well of specific target protein, 500 ng/well lactate dehydrogenase (LDH) irrelevant or non-specific target, 500 ng/well of positive control antibody raised against ETAG, and negative control of non-fat milk powder-PBS 2% at 4° C. overnight. Plates were then blocked with 350 microliters/well PBS containing 2% non-fat milk for 1 hr at room temperature. One hundred microliters per well of phage from isolated clones were added and plates were incubated at room temperature for 2 hr after centrifuging samples for 20 minutes at 3500 rpm at 4° C. The phage solution was then removed, and the wells were washed three times with PBS at room temperature. Antibody raised against M13 conjugated to horseradish peroxidase (Pharmacia) was diluted 1:3000 in PBS-Tween and added to each well (100 μl/well). Incubation was for 1 hr at room temperature, followed by washing with PBS-(0.5%) Tween 3 times as described. Color was developed by addition of ABTS solution (100 μl/well; Boehringer, Indianapolis, Ind.). Plates were analyzed at 405 nm. A clone was considered “positive” if the A405 of the well was ≧2-fold over background.
In general terms: An ELISA detects its analyte on a solid surface through an enzyme-linked reagent.

The subject of experiment [2] is lactate dehydrogenase (LDH). In words: ELISA analysis of phage on LDH (irrelevant, non-specific target). It counts as binding. As to conditions: for LDH (OD): peptide binding to LDH polypeptide (non-specific binding), phage ELISA units read at 405 nm; for LDH: DGI-9 binders, LDH control irrelevant protein, ratio over background. The method, then: as §1
Experiment [3] relates to E-tag antibody. In words: ELISA analysis of phage on antibody raised against ETAG (positive control). As to conditions: peptide binding to E-tag antibody; phage ELISA units read at 405 nm. The method, then:
as §1

“ACSVGTALVFPQRWWYLGRS (DGI-2-20R-3-D6; listed as Escherichia coli) [DGL-2-20R-3-D6]”: in experiment [1], the “DGI-2 (OD)” value stood at 2.2 OD and the “DGI-2/LDH (OD)” value is recorded as 2.1. Also, the “LDH (OD)” value in experiment [2] was 1.1 OD. Further, the “ETAG (OD)” value in experiment [3] is 12.9 OD.
Consider “ALRSLGSGGFGWQAGRASPQGMTHFPYFGWSGMPTARVRP (DGI-2-40F-3-D7; listed as Escherichia coli)”, for which, in experiment [1], the “DGI-2 (OD)” value amounted to 2.6 OD and the “DGI-2/LDH (OD)” value was 2.6. Also, in experiment [2], the “LDH (OD)” value is given as 1.0 OD. Further, in experiment [3], the “ETAG (OD)” value worked out at 10.3 OD.
Turning to “CAYRWGLFRGPGRVDYDLQVVGIMMWPGPIPDRSSRGSVA (DGI-2-40F-3-A7; listed as Escherichia coli)”, in experiment [1], the “DGI-2 (OD)” value is given as 0.9 OD and the “DGI-2/LDH (OD)” value is 1.1. In experiment [2], the “LDH (OD)” value worked out at 0.8 OD. For the same substance, in experiment [3], the “ETAG (OD)” value worked out at 8.7 OD.
For the substance “CCAWNGVGVGGLGWRVVVGP (DGI-2-20F-PP-H4; listed as Escherichia coli)”, in experiment [1], the “DGI-2 (OD)” value is listed as 2.1 OD and the “DGI-2/LDH (OD)” value was 2.2. Also, the “LDH (OD)” value in experiment [2] worked out at 1.0 OD. In addition, in experiment [3], the “ETAG (OD)” value is recorded as 32.9 OD.
On the same counts, the results for “CGGWGAMWEAWVQGLNGAGC (DGI-2-20R-3-D4; listed as Escherichia coli)” are 8.7 OD, 8.1, 1.1 OD and 18.9 OD.
Regarding “CRNFGVIWGAGWVSPGCEDJ (CRNFGVIWGAGWVSPGCEDI; not fully specified; non-natural residue J; DGI-2-20F-3-A1; listed as Escherichia coli) [DGI-2-20E-3-A1]”, in experiment [1], the “DGI-2 (OD)” value was 2.8 OD and the “DGI-2/LDH (OD)” value stood at 3.0. In experiment [2], the “LDH (OD)” value amounted to 1.0 OD. In experiment [3], the “ETAG (OD)” value amounted to 14.3 OD.
Turning to “CYLSRLFRSGQGIGQFGHVE (DGI-2-20F-PP-A82; listed as Escherichia coli)”, in experiment [1], the “DGI-2 (OD)” value is recorded as 2.5 OD and the “DGI-2/LDH (OD)” value is 2.3. The “LDH (OD)” value in experiment [2] is on record as 1.1 OD. Also, the “ETAG (OD)” value in experiment [3] was found to be 16.5 OD.
Taken in the same sequence, the figures for “DAGIGWVGSMWFPPGCIGAC (DGI-2-20R-4-E82; listed as Escherichia coli)” were 3.9 OD, 3.7, 1.1 OD and 19.6 OD.
On the same counts, the results for “DDIVCLFQFCTMFCWLDMGW (DDIVCLFQFCIMFCWLDMGW; DGI-2-20F-PP-H3; listed as Escherichia coli)” are 2.3 OD, 1.3, 1.8 OD and 3.7 OD.
On to “DGKHLTKWSGRGWWSAWVGG (DGI-2-20R-3-B12; listed as Escherichia coli)”, for which, in experiment [1], the “DGI-2 (OD)” value is 5.7 OD and the “DGI-2/LDH (OD)” value stood at 5.5. Moreover, the “LDH (OD)” value in experiment [2] came to 1.0 OD. Also, the “ETAG (OD)” value in experiment [3] stood at 15.5 OD.
On to “DGRGWGAMWMRWAEGLGADI (DGI-2-20R-4-G114; listed as Escherichia coli)”, for which, in experiment [1], the “DGI-2 (OD)” value came out at 12.9 OD and the “DGI-2/LDH (OD)” value is recorded as 11.0. The “LDH (OD)” value in experiment [2] was found to be 1.2 OD. The “ETAG (OD)” value in experiment [3] worked out at 16.5 OD.
Taken in the same sequence, the figures for “DQRVVGSGWFERLRNWYDRA (DGI-2-20R-4-G99; listed as Escherichia coli)” were 7.5 OD, 7.2, 1.0 OD and 14.1 OD.
On the same counts, the results for “DRHRAFVAEGLDGFRHSTGV (DGI-2-20F-PP-D4; listed as Escherichia coli)” are 2.6 OD, 2.3, 1.1 OD and 44.0 OD.
On the same counts, the results for “DRSRAPLCADKSGRWQRYRR (DGI-2-20F-PP-C10; listed as Escherichia coli)” are 2.7 OD, 3.1, 0.9 OD and 8.6 OD.
As to “DRVARLATPTAGTMAAGSLGYERTVGCDSQDWFRCVVEGL (DGI-2-40F-3-D1044; listed as Escherichia coli)”, in experiment [1], the “DGI-2 (OD)” value worked out at 7.9 OD and the “DGI-2/LDH (OD)” value came out at 6.2. For the same substance, the “LDH (OD)” value in experiment [2] is recorded as 1.3 OD. Besides, the “ETAG (OD)” value in experiment [3] is given as 17.7 OD.
Taken in the same sequence, the figures for “DSEA*RVWYSGFLRRLGHMC (DSEARVWYSGFLRRLGHMC; DGI-2-20F-PP-F7; listed as Escherichia coli)” were 2.1 OD, 2.1, 1.0 OD and 3.3 OD.
On the same counts, the results for “DVGAVVRSGHCASRPGE*QVR (DVGAVVRSGHCASRPGEQVR; DGI-2-20F-PP-H9; listed as Escherichia coli)” are 1.6 OD, 1.5, 1.1 OD and 13.6 OD.
On the same counts, the results for “DYKGRTMTSPIMSALPVYDRLHGIGSRGQNMD (DYKGRTMTSPIMSALPVYDRLHGAIGSRGQNMD; DGI-2-20C-3-B3; listed as Escherichia coli)” are 0.8 OD, 0.9, 0.9 OD and 7.7 OD.
As for “DYKTCVSQHVHPLFGEYFYHKVTHMSILSPTFRVTSLYG.K (DYKTCVSQHVHPLFGEYFYHKVTHMSILSPTFRVTSLYGK; DGI-2-40F-3-B95; listed as Escherichia coli)”, in experiment [1], the “DGI-2 (OD)” value turned out to be 1.0 OD and the “DGI-2/LDH (OD)” value is 1.2. For the same substance, the “LDH (OD)” value in experiment [2] is listed as 0.8 OD. Also, in experiment [3], the “ETAG (OD)” value was found to be 5.4 OD.
On to “EGNWFCAVFRGFCVGDRGPE (DGI-2-20R-3-A1; listed as Escherichia coli)”, for which, in experiment [1], the “DGI-2 (OD)” value came out at 7.1 OD and the “DGI-2/LDH (OD)” value is reported as 6.3. Moreover, the “LDH (OD)” value in experiment [2] stood at 1.1 OD. The “ETAG (OD)” value in experiment [3] came out at 11.1 OD.
As for “EGQRVVFLFGALVAGLCWRDR (DGI-2-20F-PP-F3; listed as Escherichia coli)”, in experiment [1], the “DGI-2 (OD)” value was determined as 2.6 OD and the “DGI-2/LDH (OD)” value is reported as 2.2. Also, in experiment [2], the “LDH (OD)” value is on record as 1.1 OD. The “ETAG (OD)” value in experiment [3] turned out to be 18.7 OD.
With “ERVSKCVGRGSGRSVGQFGG (DGI-2-20F-PP-F1; listed as Escherichia coli)”, in experiment [1], the “DGI-2 (OD)” value worked out at 3.0 OD and the “DGI-2/LDH (OD)” value is recorded as 3.4. Also, the “LDH (OD)” value in experiment [2] was 0.9 OD. In addition, the “ETAG (OD)” value in experiment [3] is reported as 11.1 OD.
On the same counts, the results for “EVFVSVWVFRFRVMPVTPGGT (DGI-2-20F-PP-E6; listed as Escherichia coli)” are 3.0 OD, 2.6, 1.2 OD and 4.1 OD.
“FGRDGDGIQRRQGGFSWVGDR (DGI-2-20F-PP-E2; listed as Escherichia coli)”: in experiment [1], the “DGI-2 (OD)” value was 1.7 OD and the “DGI-2/LDH (OD)” value turned out to be 2.4. Moreover, the “LDH (OD)” value in experiment [2] worked out at 0.7 OD. In addition, in experiment [3], the “ETAG (OD)” value worked out at 11.6 OD.
Consider “FGSTAYADMLSQFRKFAMNIS (DGI-2-20F-PP-E1; listed as Escherichia coli)”, for which, in experiment [1], the “DGI-2 (OD)” value stood at 1.8 OD and the “DGI-2/LDH (OD)” value is on record as 1.9. Besides, in experiment [2], the “LDH (OD)” value came out at 1.0 OD. Also, in experiment [3], the “ETAG (OD)” value is reported as 33.4 OD.
With FLLQDFIMDAGSFVKPIGVG [DGI9-20M-4-A414], in experiment [2], the LDH is 1.1.
As to “FRMWVQSCFWGQPGTGCGEG (DGI-2-20R-3-D2; listed as Escherichia coli)”, in experiment [1], the “DGI-2 (OD)” value was determined as 7.9 OD and the “DGI-2/LDH (OD)” value is listed as 7.5. Besides, the “LDH (OD)” value in experiment [2] stood at 1.1 OD. Moreover, the “ETAG (OD)” value in experiment [3] is 14.3 OD.
For the substance MAGFRGSGLSGYSEARLPRV [DGI9-20M-4-E3], in experiment [2], the LDH was 1.0.
For the substance SRLALSSQHGLSLVAGRRRG [DGI9-20M-4-A12], in experiment [2], the LDH is recorded as 0.9.
Consider WDWSRFGAQLRGAILGRATG [DGI9-20M-4-A627], for which the LDH in experiment [2] was found to be 0.9.
